In patent US10294218B2 (VIROSTATICS SRL, priority 2012, dated 2019):
Like-named read-outs stand apart in the source and are kept apart here.

Assays:
[1] = system: laboratory strain of HIV-1; experiment: Antiviral activity against HIV (AV), p24 in infected activated primary T cells; format: cell-based; settings: for IC50: Human immunodeficiency virus 1, T-cell, read-out: AV50 (Inhibitory concentration 50% for antiviral activity); for antiviral and antiproliferative activity and cytotoxicity profile (in words): summary of AV, AP and cytotoxicity assays
Procedure: Activated primary T cells are infected with a laboratory strain of HIV-1, then cultured and exposed to different concentrations of the test compounds. HIV replication is analysed by measuring the viral protein p24 and expressed as percentage of untreated control. Inhibition of viral replication (AV) is then calculated (AV=100 minus the % p24 compared to control, AV of control=0%). Inhibitory concentration 50% for antiviral activity (AV50) is calculated.
(§1) In Tables 2, 3 and 4, ND means Not Determined.

[2] = system: Primary T cells; experiment: Antiproliferative activity (AP), mitotic index by flow cytometry; format: cell-based; settings: T-cell, read-out: AP50 (Inhibitory concentration 50% for antiproliferative capacity)
Procedure: Primary T cells are cultured and exposed to different concentrations of the test compounds. Cell proliferation is analysed by measuring mitotic index (ie the number of cell divisions a population of cells undergoes) through flow cytometry based techniques. Mitotic index is expressed as percentage of untreated control. Inhibition of cell proliferation (AP) is then calculated (AP=100 minus % mitotic index compared to control, AP of control=0%). Inhibitory concentration 50% for antiproliferative capacity (AP50) is calculated.
as §1

[3] = HIV-1 infected activated primary T cells, p24

| Compound | IC50 [1] [nM] | antiviral and antiproliferative activity and cytotoxicity profile (in words) [1] | IC50 [2] [nM] | IC50 ([2]; primary T cells, mitotic index) [nM] | IC50 [1, 3] [nM] | anti-HIV and cytotoxicity profile (in words) ([1]; summary of AV and cytotoxicity assays) |
| --- | --- | --- | --- | --- | --- | --- |
| COc1ccc(Nc2cc(-c3ccccc3OC)ncn2)cc1N [Example 41, 4-Methoxy-N1-(6-(2-methoxyphenyl)pyrimidin-4-yl)benzene-1,3-diamine] | 60 | good antiviral and antiproliferative activity and a good cytotoxicity profile | 80 | – | – | – |
| CCOC(=O)c1cc(Nc2cc(-c3ccccc3OC)ncn2)ccc1N1CCOCC1 [Example 18, Ethyl 5-(6-(2-methoxyphenyl)pyrimidin-4-ylamino)-2-morpholinobenzoate] | > 1500 | – | – | > 500 | – | – |
| CCOc1ccccc1-c1cc(Nc2cc(C(N)=O)c(OC)cc2F)ncn1 [Example 145, 5-[6-(2-Ethoxy-phenyl)-pyrimidin-4-ylamino]-4-fluoro-2-methoxy-benzamide] | 30 | good antiviral and antiproliferative activity and a good cytotoxicity profile | 50 | – | – | – |
| COc1ccc(Nc2cc(-c3ccccc3OC)ncn2)cc1O [Example 32, 2-Methoxy-5-(6-(2-methoxyphenyl)pyrimidin-4-ylamino)phenol] | 150 | good antiviral and antiproliferative activity and a good cytotoxicity profile | – | 70 | – | – |
| CCOc1cc(F)ccc1-c1cc(Nc2cc(C(N)=O)c(OC)cc2F)ncn1 [Example 147, 5-[6-(2-Ethoxy-4-fluoro-phenyl)-pyrimidin-4-ylamino]-4-fluoro-2-methoxy-benzamide] | 5 | good antiviral and antiproliferative activity and a good cytotoxicity profile | 40 | – | – | – |
| COc1cc(F)c(Nc2cc(-c3ccc(F)cc3OC)ncn2)cc1C(N)=O [Example 146, 4-Fluoro-5-[6-(4-fluoro-2-methoxy-phenyl)-pyrimidin-4-ylamino]-2-methoxy-benzamide] | < 3 | good antiviral and antiproliferative activity and a good cytotoxicity profile | 40 | – | – | – |
| COC(=O)c1cc(Nc2cc(-c3ccccc3OC)ncn2)ccc1OC [Example 30, Methyl 2-methoxy-5-(6-(2-methoxyphenyl)pyrimidin-4-ylamino)benzoate] | > 1500 | – | – | > 500 | – | – |
| COc1ccc(Nc2cc(-c3ccc(F)cc3OC)ncn2)cc1C(N)=O [Example 128, 5-[6-(4-Fluoro-2-methoxy-phenyl)-pyrimidin-4-ylamino]-2-methoxy-benzamide] | < 3 | good antiviral and antiproliferative activity and a good cytotoxicity profile | 30 | – | – | – |
| COc1ccc(Nc2cc(-c3ccccc3OC)ncn2)cc1C(=O)NCc1ccccc1 [Example 23, N-Benzyl-2-methoxy-5-(6-(2-methoxyphenyl)pyrimidin-4-ylamino)benzamide] | > 500 | – | > 500 | – | – | – |
| COc1ccc(Nc2cc(-c3ccccc3OC)ncn2)cc1C(=O)NCc1ccncc1 [Example 28, 2-Methoxy-5-(6-(2-methoxyphenyl)pyrimidin-4-ylamino)-N-(pyridin-4-ylmethyl)benzamide] | > 500 | – | > 500 | – | – | – |
| COc1ccc(Nc2cc(-c3ccccc3OC)ncn2)cc1C=O [Example 29, 2-Methoxy-5-(6-(2-methoxyphenyl)pyrimidin-4-ylamino)benzaldehyde] | > 500 | – | – | > 500 | – | – |
| COc1ccc(Nc2cc(-c3ccccc3OC)ncn2)cc1NS(C)(=O)=O [Example 9, N-(2-Methoxy-5-(6-(2-methoxyphenyl)pyrimidin-4-ylamino)phenyl)methanesulfonamide] | < 1500 | – | – | > 1500 | – | – |
| CCOc1ccc(Nc2cc(-c3ccccc3OC)ncn2)cc1Cn1cnc2ccccc21 [Example 39, N-(3-((1H-Benzo[d]imidazol-1-yl)methyl)-4-ethoxyphenyl)-6-(2-methoxyphenyl)pyrimidin-4-amine] | > 1000 | – | – | 300 | – | – |
| CN1CC[C@H](c2c(O)cc(O)c3c(=O)cc(-c4ccccc4Cl)oc23)[C@H](O)C1 [Flavopiridol, reference compound] | – | – | – | 30 | 100 | poor anti-HIV and cytotoxicity profile |
| CCOc1ccc(Nc2cc(-c3ccccc3OC)ncn2)cc1C(N)=O [Example 111, 2-Ethoxy-5-[6-(2-methoxy-phenyl)-pyrimidin-4-ylamino]-benzamide] | 7 | good antiviral and antiproliferative activity and a good cytotoxicity profile | – | 16 | – | – |
| COc1ccc(Nc2cc(-c3ccccc3OC)ncn2)cc1NS(=O)(=O)NC1CCCCC1 [Example 13, (2-Methoxy-5-(6-(2-methoxyphenyl)pyrimidin-4-ylamino)phenyl) (cyclohexylsulfamoyl)amine] | 300 | good antiviral and antiproliferative activity and a good cytotoxicity profile | – | 600 | – | – |
| COc1cc(F)c(Nc2cc(-c3ccccc3OC)ncn2)cc1C(N)=O [Example 143, 4-Fluoro-2-methoxy-5-[6-(2-methoxy-phenyl)-pyrimidin-4-ylamino]-benzamide] | 16 | good antiviral and antiproliferative activity and a good cytotoxicity profile | > 80 | – | – | – |
| COc1ccc(Nc2cc(-c3ccccc3OC)ncn2)cc1Cn1cnc2ccccc21 [Example 31, N-(3-((1H-Benzo[d]imidazol-1-yl)methyl)-4-methoxyphenyl)-6-(2-methoxyphenyl)pyrimidin-4-amine] | 200 | good antiviral and antiproliferative activity and a good cytotoxicity profile | 350 | – | – | – |
| COc1ccc(Nc2cc(-c3ccccc3OC)ncn2)cc1CN [Example 43, N-(3-(Aminomethyl)-4-methoxyphenyl)-6-(2-methoxyphenyl)pyrimidin-4-amine] | – | good antiviral and antiproliferative activity and a good cytotoxicity profile | – | 500 | – | – |
| COc1ccccc1-c1cc(Nc2ccc(N3CCN(C)CC3)c(CO)c2)ncn1 [Example 17] | > 1500 | – | – | 350 | – | – |
| CCOc1ccccc1-c1cc(Nc2ccc(OC)c(C(N)=O)c2)ncn1 [Example 129, 5-[6-(2-Ethoxy-phenyl)-pyrimidin-4-ylamino]-2-methoxy-benzamide] | 10 | good antiviral and antiproliferative activity and a good cytotoxicity profile | < 80 | – | – | – |
| COc1ccc(Nc2cc(-c3ccccc3OC)ncn2)cc1OC(=O)C(C)(C)C [Example 26, 2-methoxy-5-(6-(2-methoxyphenyl)pyrimidin-4-ylamino)phenyl pivalate] | – | good antiviral and antiproliferative activity and a good cytotoxicity profile | – | 100 | 100 | – |
| COc1ccc(Nc2cc(-c3cc(F)ccc3OC)ncn2)cc1C(N)=O [Example 127, 5-[6-(5-Fluoro-2-methoxy-phenyl)-pyrimidin-4-ylamino]-2-methoxy-benzamide] | 3 | good antiviral and antiproliferative activity and a good cytotoxicity profile | < 80 | – | – | – |
| CNS(=O)(=O)Nc1cc(Nc2cc(-c3ccccc3OC)ncn2)ccc1OC [Example 10, (2-Methoxy-5-(6-(2-methoxyphenyl)pyrimidin-4-ylamino)phenyl)(methylsulfamoyl)amine] | 800 | good antiviral and antiproliferative activity and a good cytotoxicity profile | – | 500 | – | – |
| COc1ccccc1-c1cc(Nc2ccc(N3CCN(C)CC3)c(Cn3cnc4ccccc43)c2)ncn1 [Example 2, N-(3-((1H-Benzo[d]imidazol-1-yl)methyl)-4-(4-methylpiperazin-1-yl)phenyl)-6-(2-methoxyphenyl)pyrimidin-4-amine] | – | – | – | 400 | – | – |
| COc1ccccc1-c1cc(Nc2ccc(N3CCOCC3)c(CO)c2)ncn1 [Example 19, (5-(6-(2-Methoxyphenyl)pyrimidin-4-ylamino)-2-morpholinophenyl)methanol] | 1000 | – | – | > 500 | – | – |
| COc1ccccc1-c1cc(Nc2ccc(Cl)c(Cn3cnc4ccccc43)c2)ncn1 [Example 16, N-(3-((1H-benzo[d]imidazol-1-yl)methyl)-4-chlorophenyl)-6-(2-methoxyphenyl)pyrimidin-4-amine] | 110 | good antiviral and antiproliferative activity and a good cytotoxicity profile | 100 | – | – | – |
| CNC(=O)c1cc(Nc2cc(-c3ccccc3OC)ncn2)ccc1OC [Example 25, 2-Methoxy-5-(6-(2-methoxyphenyl)pyrimidin-4-ylamino)-N-methylbenzamide] | > 500 | – | > 500 | – | – | – |
| COc1ccccc1-c1cc(Nc2ccc(OC)c([N+](=O)[O-])c2)ncn1 [Example 11, N-(4-Methoxy-3-nitrophenyl)-6-(2-methoxyphenyl)pyrimidin-4-amine] | – | – | – | > 1500 | – | – |
| COc1ccccc1-c1cc(Nc2ccc(O)c([N+](=O)[O-])c2)ncn1 [Example 12, 4-(6-(2-methoxyphenyl)pyrimidin-4-ylamino)-2-nitrophenol] | – | – | – | > 1500 | – | – |
